# Data: US4268505A, “Pharmaceutical composition comprising a nitrogen-containing polysaccharide and an antibiotic agent, and a method of treating an infectious disease therewith” (priority 1979, dated 1981)
# Legend:
# Klebsiella pneumoniae = assay: Minimum growth inhibiting concentration, agar plate method; type: cell-based; details: for Minimum growth inhibiting concentration: strain resistant to the respective drug
# Procedure: (§1) The drug-resistant strains of bacterial species were obtained in the manner described below according to the concentration gradient plate culture (see "Chemotherapeutics and Resistant Bacteria", 1970, By Chikara Watanabe, Asakura Shoten).
# (§2) The agar plates with drug concentration gradient ranging from 10 to 100 μg/ml were prepared, and each strain of the bacterial species to be tested was streaked or smeared. These plates were kept at 37° C. for several days and the colony formed in the high concentration area was isolated and again similarly inoculated to the plates. Such operation was repeated several times to obtain the bacterial strains resistant to the respective drugs.
# (§3) The drug sensitivity of the drug-resistant strains and that of the original strains (sensitive strains) were compared by way of the minimum growth inhibiting concentration (hereinafter abbreviated as MIC) according to the Standard Method of the Japanese Chemotherapeutical Association (see "Chemotherapy" Vol. 22, No. 6, 1126 (1974), by MIC Determination Method Reform Committee). More specifically, double diluted systems of each drug were prepared and they were mixed with the heart-infusion agar medium (Nippon Eiyo Kagaku Co., Ltd.) to form the agar plates. Then a loopful of each strain, which had been cultured at 37° C. in Trypto-soy bouillon (Nippon Eiyo Kagaku Co., Ltd.) for 18 hr. was smeared on each the plate, and after culturing for 18 hr. at 37° C., the growth of the strain on each plate was examined.
# (§4) The amount of the present substance added is more than 10 μg/ml, preferably more than 100 μg/ml. The pH of the medium was maintained at 7.2±0.1 so that MIC would not be affected by pH of the medium.
# (§5) Specimens of the drug-resistant bacterial strain were obtained according to the aforementioned concentration-gradient plate culture by using Staphylococcus aureus, Streptococcus faecalis, Escherichia coli, Salmonella enteritidis, Klebsiella pneumoniae and Pseudomonas aeruginosa.
# Staphylococcus aureus = assay: as above; type: cell-based
# Procedure: as §1, §2, §3, §4, §5
# Salmonella enteritidis = assay: as above; type: cell-based
# Procedure: as §1, §2, §3
# (§6) MIC has apparently been reduced to half the level or less before addition of the present substance as will be seen in Table 3 of EXAMPLE 1. The amount of the present substance added is more than 10 μg/ml, preferably more than 100 μg/ml. The pH of the medium was maintained at 7.2±0.1 so that MIC would not be affected by pH of the medium.
# (§7) Specimens of the drug-resistant bacterial strain were obtained according to the aforementioned concentration-gradient plate culture by using Staphylococcus aureus, Streptococcus faecalis, Escherichia coli, Salmonella enteritidis, Klebsiella pneumoniae and Pseudomonas aeruginosa. The MICs of the original bacterial strains and those of the bacterial strains which have developed resistance to the respective antibiotics are summarized in Table 2.
# Escherichia coli = assay: as above; type: cell-based; details: for Minimum growth inhibiting concentration: strain resistant to the respective drug
# Procedure: as §1, §2, §3, §6, §7
# [1] = test system: Streptococcus faecalis resistant to erythromycin; assay: Therapeutical treatment of mice infected with erythromycin-resistant Streptococcus faecalis (Example 9); type: in vivo, male ICR-JCL mice; details: only erythromycin 50 mg/kg oral, 7th day
# Procedure: Experiments of therapeutical treatment of animals infected with an erythromycin-resistant bacterial strain were carried out using the present substance, i.e., a nitrogen-containing polysaccharide prepared by the procedures described in Example 1.
# After keeping the mice under usual conditions for 6 days, the rate of survival of each mouse was observed on 7th day.
# Shigella sonnei = assay: Minimum growth inhibiting concentration, agar plate method; type: cell-based; details: for Minimum growth inhibiting concentration: strain resistant to the respective drug
# [2] = test system: kanamycin-resistant strain of Shigella sonnei; assay: Therapeutical treatment of mice infected with kanamycin-resistant Shigella sonnei (Example 10); type: in vivo, male ICR-JCL mice; details: only kanamycin 20 mg/kg i.p., 7th day
# Procedure: (§8) Similar experiments of therapeutical treatment as in Example 9 was performed by using the present substance obtained by the procedures described in Example 1.
# A kanamycin-resistant strain of Shigella sonnei obtained by the procedures described in Example 1 was intraperitoneally inoculated to the two groups (each group comprising 10 animals) of male ICR-JCL mice at a rate of 1×10^8 cells/mouse, and after 2 hours of the inoculation, 20 mg/kg of kanamycin was intraperitoneally administered to the mice of one group, and 100 mg/kg of the present substance and 20 mg/kg of kanamycin were almost simultaneously administered to the mice of another group. After keeping the mice under usual conditions for 6 days. Their rate of survival was observed on 7th day.
# Enterobacter aerogenes = assay: Minimum growth inhibiting concentration, agar plate method; type: cell-based; details: for Minimum growth inhibiting concentration: strain resistant to the respective drug
# [3] = test system: aminobenzylpenicillin-resistant strain of Klebsiella pneumoniae; assay: Therapeutical treatment of mice infected with aminobenzylpenicillin-resistant Klebsiella pneumoniae (Example 12); type: in vivo, male ICR-JCL mice; details: only aminobenzylpenicillin 100 mg/kg oral, 7th day
# Procedure: Similar experiments as in Example 9 were performed using the present substance obtained by the procedures described in Example 1.
# An aminobenzylpenicillin-resistant strain of Klebsiella pneumoniae obtained by the procedures described in Example 1 was inoculated intraperitoneally into two groups (one group comprising 10 animals) of male ICR-JCL mice at a rate of 1×10^8 cells/mouse.
# After 2 hours of the inoculation, 100 mg/kg of aminobenzyl penicillin was orally administered to each mouse of one group, and 1,000 mg/kg of the present substance simply admixtured with 100 mg/kg of aminobenzyl penicillin were orally administered to each mouse of another group. After keeping the mice under usual conditions, the rate of survival of each group was observed on 7th day with the results: […]
# Proteus mirabilis = assay: Minimum growth inhibiting concentration, agar plate method; type: cell-based
# Procedure: as §1, §2, §3, §4, §5
# [4] = test system: aminobenzylpenicillin-resistant strain of Enterobacter aerogenes; assay: Therapeutical treatment of mice infected with aminobenzylpenicillin-resistant Enterobacter aerogenes (Example 13); type: in vivo, male ICR-JCL mice; details: only aminobenzylpenicillin 100 mg/kg oral, 7th day
# Procedure: After keeping the mice for 6 days under usual conditions, their rate of survival was determined on 7th day.
# Pseudomonas aeruginosa = assay: Minimum growth inhibiting concentration, agar plate method; type: cell-based; details: for Minimum growth inhibiting concentration: strain resistant to the respective drug
# Procedure: as §1, §2, §3, §4, §5
# [5] = test system: colistin-resistant strain of Pseudomonas aeruginosa; assay: Therapeutical test in mice infected with colistin-resistant Pseudomonas aeruginosa (Example 8); type: in vivo, male ICR-JCL mice; details: single colistin 190 mg/kg i.p., 6 days after administration
# Procedure: A quarter milli-liter of a suspension of the colistin-resistant strain of Pseudomonas aeruginosa cultured by the same procedure in Example 1 in Trypto-soy bouillon (see Example 2) including 5% of mucin was intraperitoneally inoculated to each mouse of 2 groups of male ICR-JCL mice (body weight: 22±1 g, 10 mice a group) at the rate of 1×10^8 cells/mouse. […] The present substance obtained by the same procedure as in Example 6 was also orally administered at a dose of 1,500 mg/kg.
# [6] = test system: cephaloridine-resistant strain of Proteus mirabilis; assay: Therapeutical treatment of mice infected with cephaloridine-resistant Proteus mirabilis (Example 11); type: in vivo, male ICR-JCL mice; details: only cephaloridine 80 mg/kg i.p., 7th day
# Procedure: as §8
# A cephaloridine-resistant strain of Proteus mirabilis obtained by the procedures described in Example 1 was inoculated into male ICR-JCL mice comprising 20 animals at a rate of 5×10^8 cells/animal. After 2 hours of the inoculation 80 mg/kg of cephalotidine was administered intraperitoneally into each of 10 mice (of 20 mice), and 50 mg/kg of the present substance and 80 mg/kg of cephaloridine were almost simultaneously administered to each of another 10 mice (of 20 mice) intraperitoneally.
# After keeping the animals under usual conditions for 6 days, their rate of survival were observed on 7th day to find: […]
# [7] = test system: streptomycin resistant strain of Klebsiella pneumoniae; assay: Therapeutical test in mice infected with streptomycin-resistant Klebsiella pneumoniae (Example 7); type: in vivo, male ICR-JCL mouse; details: streptomycin singly 100 mg/kg i.p., 6 days after administration
# Procedure: The streptomycin resistant strain of Klebsiella pneumoniae was obtained by the procedure of Exampe 1 and 0.25 ml of a Trypto-soy bouillon (see Example 2) containing 5% of mucin and the bacterial strain was intraperitoneally inoculated to each mouse of 2 groups of male ICR-JCL mouse, the group consisting of 10 mice at the rate of 1×10^8 cells per mouse. Three hours after this inoculation, 100 mg/kg of streptomycin was intraperitoneally administered. Another group was further given 120 mg/kg of the present substance, obtained by the description in Example 6, via intraperitoneal administration. The survival rate 6 days after administration was 50% in the group where streptomycin was used singly, but it was as high as 80% in the group where the present substance was used with streptomycin.
# [8] = strain resistant to the respective antibiotic (Table 2)
# [9] = present substance added at 1000 μg/ml
# [10] = present substance not added (Table 3)
molecule,measurement,setting,value
"CC[C@H]1OC(=O)[C@H](C)[C@@H](O[C@H]2C[C@@](C)(OC)[C@@H](O)[C@H](C)O2)[C@H](C)[C@@H](O[C@@H]2O[C@H](C)C[C@H](N(C)C)[C@H]2O)[C@](C)(O)C[C@@H](C)C(=O)[C@H](C)[C@@H](O)[C@]1(C)O [EM, Erythromycin]",Minimum growth inhibiting concentration (MIC),Klebsiella pneumoniae; [8],> 100 µg/mL
same,Minimum growth inhibiting concentration (MIC),Staphylococcus aureus; original strain,0.4 µg/mL
same,Minimum growth inhibiting concentration,"Staphylococcus aureus; strain resistant to the respective drug, present substance added at 1000 μg/ml",3.2 µg/mL
same,Minimum growth inhibiting concentration (MIC),Salmonella enteritidis; original strain,> 100 µg/mL
same,Minimum growth inhibiting concentration (MIC),Escherichia coli; original strain,> 100 µg/mL
same,rate of survival,[1],50%
"NC[C@H]1O[C@H](O[C@H]2[C@H](O)[C@@H](O[C@H]3O[C@H](CO)[C@@H](O)[C@H](N)[C@H]3O)[C@H](N)C[C@@H]2N)[C@H](O)[C@@H](O)[C@@H]1O [KM, Kanamycin]",Minimum growth inhibiting concentration (MIC),Escherichia coli; original strain,6.3 µg/mL
same,Minimum growth inhibiting concentration (MIC),Escherichia coli; [8],200 µg/mL
same,Minimum growth inhibiting concentration,Escherichia coli; [9],50 µg/mL
same,Minimum growth inhibiting concentration,Escherichia coli; [10],200 µg/mL
same,Minimum growth inhibiting concentration (MIC),Shigella sonnei; original strain,3.1 µg/mL
same,Minimum growth inhibiting concentration (MIC),Shigella sonnei; [8],50 µg/mL
same,Minimum growth inhibiting concentration,Shigella sonnei; [9],12.5 µg/mL
same,Minimum growth inhibiting concentration,Shigella sonnei; [10],50 µg/mL
same,rate of survival,[2],30%
same,Minimum growth inhibiting concentration (MIC),Enterobacter aerogenes; original strain,3.1 µg/mL
same,Minimum growth inhibiting concentration (MIC),Enterobacter aerogenes; [8],100 µg/mL
same,Minimum growth inhibiting concentration,Enterobacter aerogenes; [9],12.5 µg/mL
same,Minimum growth inhibiting concentration,Enterobacter aerogenes; [10],100 µg/mL
"CC1(C)S[C@@H]2[C@H](NC(=O)[C@H](N)c3ccccc3)C(=O)N2[C@H]1C(=O)O [AP, Aminobenzylpenicillin]",rate of survival,[3],40%
same,Minimum growth inhibiting concentration (MIC),Proteus mirabilis; original strain,0.8 µg/mL
same,Minimum growth inhibiting concentration (MIC),Proteus mirabilis; [8],25 µg/mL
same,Minimum growth inhibiting concentration,"Proteus mirabilis; strain resistant to the respective drug, present substance not added (Table 3)",25 µg/mL
same,rate of survival,[4],70%
Colistin [CL],Minimum growth inhibiting concentration (MIC),Pseudomonas aeruginosa; [8],200 µg/mL
same,Minimum growth inhibiting concentration,Pseudomonas aeruginosa; [9],100 µg/mL
same,Minimum growth inhibiting concentration,Pseudomonas aeruginosa; [10],200 µg/mL
same,rate of survival,[5],40%
"O=C(Cc1cccs1)N[C@@H]1C(=O)N2C(C(=O)[O-])=C(C[n+]3ccccc3)CS[C@H]12 [CE, Cephaloridine]",rate of survival,[6],60%
same,Minimum growth inhibiting concentration (MIC),Escherichia coli; original strain,3.1 µg/mL
same,Minimum growth inhibiting concentration (MIC),Escherichia coli; [8],25 µg/mL
same,Minimum growth inhibiting concentration,Escherichia coli; present substance added at 10 μg/ml,12.5 µg/mL
same,Minimum growth inhibiting concentration,Escherichia coli; [10],25 µg/mL
"[H]/N=C(/N)N[C@H]1[C@H](O)[C@@H](O)[C@H](O[C@@H]2O[C@@H](C)[C@](O)(C=O)[C@H]2O[C@@H]2O[C@@H](CO)[C@H](O)[C@@H](O)[C@@H]2NC)[C@@H](N/C(N)=N\[H])[C@@H]1O [SM, Streptomycin]",survival rate,[7],50%
same,Minimum growth inhibiting concentration (MIC),Klebsiella pneumoniae; original strain,1.6 µg/mL
same,Minimum growth inhibiting concentration (MIC),Klebsiella pneumoniae; [8],100 µg/mL
same,Minimum growth inhibiting concentration,Klebsiella pneumoniae; [9],25 µg/mL
same,Minimum growth inhibiting concentration,Klebsiella pneumoniae; [10],100 µg/mL
same,Minimum growth inhibiting concentration (MIC),Staphylococcus aureus; original strain,1.6 µg/mL
same,Minimum growth inhibiting concentration (MIC),Staphylococcus aureus; [8],> 100 µg/mL
same,Minimum growth inhibiting concentration (MIC),Salmonella enteritidis; original strain,25 µg/mL
same,Minimum growth inhibiting concentration (MIC),Salmonella enteritidis; [8],> 100 µg/mL
same,Minimum growth inhibiting concentration (MIC),Escherichia coli; original strain,3.1 µg/mL
same,Minimum growth inhibiting concentration (MIC),Escherichia coli; [8],100 µg/mL
same,Minimum growth inhibiting concentration,Escherichia coli; [9],25 µg/mL
same,Minimum growth inhibiting concentration,Escherichia coli; [10],100 µg/mL
